Tests used:
RICK = biological target: T1, RICK (Homo sapiens, UniProt O43353); assay: RICK-kinase assay (autophosphorylation of immunoprecipitated RICK-HA, radioactively labeled ATP); assay type: biochemical; details: in-vitro kinase assay, compound 100 nM to 50 μM, 30 min at 30° C.
T1 construct: made in house; host or cells: HEK 293 (transient transfection, pcDNA3), immunoprecipitated with anti-HA antibody
Method: (§1) To perform initial tests for compounds that inhibit RICK activity in a cellular assay, RICK was transiently overexpressed in HEK-293 cells, immunoprecipitated and incubated with different concentrations of test compounds before in-vitro kinase assays were performed (Example 10). According to the method for identifying compounds useful for inhibiting the cellular kinase RICK and therefore useful for treating and/or preventing Cytomegalovirus infection and/or diseases associated with Cytomegalovirus infection, a test compound is contacted with the cellular kinase RICK according to the RICK assay protocol disclosed in example 10. The test compound dissolved in DMSO is added to the RICK assay solution at concentrations between 100 nM and 50 μM. Thereafter, radioactively labeled ATP is added and kinase activity of RICK is determined by detecting the autophosphorylation of RICK via radioactivity measurement. The five compounds listed in the following Table 1 were identified using said method. […] The IC50 values of HCMV inhibition were obtained by the use of at least one assay protocol selected from a) virus replication assay, b) plaque assay, c) GFP (Green Fluorescent Protein) infection assay, and d) indirect immunofluorescence analysis as disclosed in example 12. Thus, the five compounds A to E mentioned below and/or pharmaceutically acceptable salts thereof can be used as inhibitors of the cellular protein kinase RICK and as pharmaceutically active compounds for the treatment and/or prophylaxis of HCMV infection. Furthermore, these compounds are suitable for the manufacture of a pharmaceutical composition for prophylaxis and/or treatment of Cytomegalovirus infection and/or diseases associated therewith.
To obtain active RICK kinase the human RICK-cDNA was fused with a DNA sequence coding for the HA-tag and cloned into the eucaryotic expression vector pcDNA3 (Invitrogene). This construct was transfected into human embryonic kidney cells (HEK 293) via the calcium-phosphate co-precipitation method. One day after transfection medium was replaced by fetal calf serurum-free medium and two days after transfection cells were washed with PBS and harvested and lysed in RIPA-buffer (150 mM NaCl, 1 mM EDTA, 1% Tritron X-100, 1% Na-desoxycholate, 0.1% SDS, 10 mM Tris-HCl pH 7.5). The RICK-HA fusion protein was immunoprecipitated from 250 μl cleared lysate (i.e. lysate of one well of a six-well plate) utilizing an anti-HA antibody from Roche Pharmaceuticals and Protein A sepharose. After addition of 500 μl of HNTG-buffer (50 mM HEPES pH 7.5, 150 mM NaCl, 1 mM EDTA, 10% glycerine, 0.1% Triton X-100) the sample was rotated for 3 hrs at 4° C. After washing the immunoprecipitate twice with 0.5 ml HNTG-buffer and twice with 0.5 ml assay-buffer (25 mM Tris-HCl pH 7.5, 3 mM MgCl2, 0.5 mM MnCl2, 0.5 mM DTT and 50 mM NaCl), the kinase reaction was performed directly on the beads in 40 μl assay buffer containing 2.5 μCi γ[^33P]-ATP and various concentrations (between 100 nM and 50 μM) of compounds of Table 1. After 30 min at 30° C., the reaction was stopped by addition of 40 μl 3×Laemmli-buffer (16% glycerol, 1.01M β-mercaptoethanol, 5% SDS, 200 mM Tris/HCl pH 6.8, 8% bromphenolblue). Phosphorylation products were analyzed by SDS-PAGE and auroradiography (x-ray film and phosphor imager).

HCMV = HCMV inhibition (virus replication assay, plaque assay, GFP infection assay or indirect immunofluorescence analysis); assay type: cell-based; details: Human betaherpesvirus 5, read-out: IC50 HCMV
Method: as §1
(§2) To perform initial tests for compounds that inhibit RIP activity in a cellular assay, RIP was transiently overexpressed in HEK-293 cells, immunoprecipitated and incubated with different concentrations of test compounds before in-vitro kinase assays were performed (Example 11). In order to identify compounds suitable for inhibiting the cellular kinase RIP and, thus, suitable for treating and/or preventing Cytomegalovirus infection and/or diseases associated with Cytomegalovirus infection the inventive method according to claim 1 was used. A test compound was contacted with the cellular kinase RIP according to the RIP assay protocoll disclosed in example 11. The test compound dissolved in DMSO is added to the RIP assay solution at concentrations between 100 nM and 50 μM. Radioactively labeled ATP was used as co-substrate of RIP and auto-phosphorylation was detected via measurement of incorporation of radioactivity into the RIP protein. Thereafter, phosphorylation rates with and without test compounds were compared. […] The IC50 values of HCMV inhibition were obtained by the use of at least one assay protocol selected from a) virus replication assay, b) plaque assay, c) GFP infection assay, and d) indirect immunofluorescence analysis as disclosed in example 12.
Primary human foreskin fibroblasts (HFF) were cultivated in MEM containing 5% (v/v) fetal calf serum. Infection analysis was restricted to cell passage numbers below twenty. Human cytomegalovirus strain AD169 (ATCC) was grown in HFF cells and quantitated for infectivity by the plaque reduction assay. Aliquots were stored at −80° C.
HFF cells were cultivated in 12-well plates to 90-100% confluency and used for infection with dilutions of virus-positive cell culture supernatants. Virus inoculation was performed for 90 min at 37° C. under occasional shaking before virus was removed and the cell layers were rinsed with PBS. Overlays of MEM 5% (v/v) fetal calf serum and 0.3% (w/v) agarose were added to each well and all samples were incubated at 37° C. in a 5% CO2 atmosphere for approximately 12 days. Finally, overlays were removed and the formation of foci was visualized by staining with 1% crystal violet in 20% ethanol for 1 min. […]

RIP = biological target: T2, RIP (Homo sapiens, UniProt Q13546); assay: RIP-kinase assay (autophosphorylation of immunoprecipitated RIP-HA, radioactively labeled ATP); assay type: biochemical; details: in-vitro kinase assay, compound 100 nM to 50 μM, 30 min at 30° C.
T2 construct: made in house; host or cells: HEK 293 (transient transfection, pcDNA3), immunoprecipitated with anti-HA antibody
T2 sequence (Q13546 1-671 A438V): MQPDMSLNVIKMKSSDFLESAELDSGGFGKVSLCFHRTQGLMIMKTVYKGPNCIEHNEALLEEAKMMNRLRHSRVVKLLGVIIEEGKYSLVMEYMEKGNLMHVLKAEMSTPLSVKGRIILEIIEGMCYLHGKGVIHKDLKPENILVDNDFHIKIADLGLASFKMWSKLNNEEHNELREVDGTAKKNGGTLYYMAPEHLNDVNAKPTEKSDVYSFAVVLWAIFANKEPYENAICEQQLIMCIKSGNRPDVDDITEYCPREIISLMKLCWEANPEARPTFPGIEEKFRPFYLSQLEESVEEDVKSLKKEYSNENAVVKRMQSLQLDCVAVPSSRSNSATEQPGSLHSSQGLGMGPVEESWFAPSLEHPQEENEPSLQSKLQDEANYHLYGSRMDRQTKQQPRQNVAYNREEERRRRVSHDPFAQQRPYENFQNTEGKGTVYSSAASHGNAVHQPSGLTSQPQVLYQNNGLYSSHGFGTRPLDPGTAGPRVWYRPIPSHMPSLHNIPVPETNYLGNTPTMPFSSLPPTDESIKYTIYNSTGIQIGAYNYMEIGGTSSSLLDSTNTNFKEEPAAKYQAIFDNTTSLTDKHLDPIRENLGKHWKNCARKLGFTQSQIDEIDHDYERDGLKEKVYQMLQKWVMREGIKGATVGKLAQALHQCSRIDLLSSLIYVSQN
Method: as §2
To obtain active RIP kinase the human RIP-cDNA was fused with a DNA sequence coding for the HA-tag and cloned into the eucaryotic expression vector pcDNA3 (Invitrogene). This construct was transfected into human embryonic kidney cells (HEK 293) via the calcium-phosphate DNA co-precipitation method. Two days after transfection cells were washed with PBS and harvested and lysed in lysis-buffer (150 mM NaCl, 1 mM EDTA, 1% Tritron X-100, 20 mM Tris-HCl pH 7.5 and freshly added: 30 mM NaF, 10 μg/ml Aprotinine, 10 μg/ml Leupeptine, 2 mM Na-pyrophosphate). […] Phosphorylation products were analyzed by SDS-PAGE and autoradiography (x-ray film and phosphor imager).

T1 sequence (O43353 whole entry): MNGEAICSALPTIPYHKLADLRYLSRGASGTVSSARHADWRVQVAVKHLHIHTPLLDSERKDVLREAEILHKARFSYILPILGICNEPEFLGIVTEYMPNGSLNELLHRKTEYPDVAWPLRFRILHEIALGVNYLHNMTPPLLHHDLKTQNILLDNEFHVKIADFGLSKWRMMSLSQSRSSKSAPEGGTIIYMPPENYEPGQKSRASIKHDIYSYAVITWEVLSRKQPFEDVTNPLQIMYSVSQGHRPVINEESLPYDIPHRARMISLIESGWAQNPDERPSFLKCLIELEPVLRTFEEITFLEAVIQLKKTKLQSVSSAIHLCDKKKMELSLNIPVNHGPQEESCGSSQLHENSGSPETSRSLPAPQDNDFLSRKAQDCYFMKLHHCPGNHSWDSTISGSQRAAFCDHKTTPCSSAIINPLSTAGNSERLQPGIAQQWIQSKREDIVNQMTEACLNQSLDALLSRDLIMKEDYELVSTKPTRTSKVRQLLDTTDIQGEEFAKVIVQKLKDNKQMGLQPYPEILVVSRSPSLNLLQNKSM

SMILES	IC50 (RICK) [µM]	IC50 (HCMV) [µM]	IC50 (RIP) [µM]
Cn1c(=O)c(-c2c(Cl)cccc2Cl)cc2cnc(NCCCN3CCOCC3)nc21 [Compound A, 6-(2,6-Dichlorophenyl)-8-methyl-2-(3-morpholin-4-yl-propylamino)-8H-pyrido[2,3-d]pyrimidin-7-one]	1	6.8	–
Cn1c(=O)c(-c2ccccc2)cc2cnc(Nc3ccncc3)nc21 [Compound B, 8-methyl-6-phenyl-2-(pyridin-4-yl-amino)-8H-pyrido[2,3-d]pyrimidin-7-one]	0.5	1.4	–
CN1CCN(CCCNc2ncc3cc(-c4c(Cl)cccc4Cl)c(=O)n(C)c3n2)CC1 [Compound C, 6-(2,6-Dichlorophenyl)-8-methyl-2-[3-(4-methylpiperazin-1-yl)-propylamino]-8H-pyrido[2,3-d]pyrimidin-7-one]	1	6.2	–
CCOc1cc2ncnc(Nc3cccc(Br)c3)c2cc1OCC [Compound D, (3-Bromophenyl)-(6,7-diethoxyquinazolin-4-yl)-amine]	0.5	7.6	–
COc1cc2ncnc(Nc3cccc(Br)c3)c2cc1OC [Compound E, (3-Bromophenyl)-(6,7-dimethoxyquinazolin-4-yl)-amine]	0.5	5.7	–
O=c1c(O)c(-c2ccc(O)c(O)c2)oc2cc(O)cc(O)c12 [Compound F, 2-(3,4-Dihydroxyphenyl)-3,5,7-trihydroxychromen-4-one]	–	15	5
O=C1Nc2ccc(Cl)cc2/C1=C/c1ccc[nH]1 [Compound G, 5-Cloro-3-(1H-pyrrol-2-ylmethylene)-1,3-dihydroindol-2-one]	–	15	10
O=C1NC(=O)c2ccccc2/C1=C/c1ccnc2ccccc12 [Compound H, 4-Quinolin-4-ylmethylene-4H-isoquinoline-1,3-dione]	–	12	5
